# Measured values reported in patent publication US9518981B2, “Modified nucleic acid binding cyanine dyes for the detection of reactive oxygen species” (LIFE TECHNOLOGIES CORPORATION, priority 2012, dated 2016).
# Assays:
# Jurkat cells [1] = assay: Detection of oxidative stress using flow cytometry (menadione, TBHP); assay type: cell-based, human; settings: menadione 25-100 μM or TBHP 50-200 μM 60 min, 5 μM probe, 488 nm laser, 530/30 filter
# Description: Jurkat cells were diluted in RPMI with 10% FBS to a density of 10^6 cells/ml. Control cells were treated with vehicle control or DMSO, and sample cells were treated with different concentrations of menadione (25 μM, 50 μM, or 100 μM), or were treated with different concentrations of Tert-butyl hydroperoxide (TBHP) (50 μM, 100 μM, or 200 μM) for 60 min. Compound 1 was added to a final concentration of 5 μM for the last 30 minutes of drug incubation. The samples were acquired and analyzed on an Attune® Acoustic Focusing Cytometer. Compound 1 fluorescence was detected using the 488 nm laser and a 530/30 nm bandpass emission filter. A total of 20,000 events were collected using the standard 200 μl/minute collection rate. An increase in Compound 1 fluorescence intensity is observed in menadione and TBHP-treated cells compared to their controls (see, FIG. 6).
# [2] = test system: Jurkat cells (T-cell leukemia, human); assay: Detection of ROS in complete media vs. protein-containing buffer, flow cytometry; assay type: cell-based; settings: 500 nM probe
# Description: Jurkat cells (T-cell leukemia, human) were resuspended in complete medium (RPMI 1640 medium, GIBCO (Life Technologies, Carlsbad, Calif.), supplemented with 10% Fetal Bovine Serum, FBS) or phosphate buffered saline supplemented with 1% bovine serum albumin (BSA). Cells in both complete medium (FIG. 9, panel A) and buffered saline+1% BSA (FIG. 9, panel B) were treated with diluents control, phosphate buffered saline alone (FIG. 9, control) or 400 μM tert-butyl-hydroperoxide (FIG. 9, TBHP) for 30 minutes at 37° C., 5% CO2 prior to staining with 500 nM Compound 1. Cell samples were analyzed on a BD LSRII flow cytometer equipped with a 488 nm laser line and a 525/50 bandpass filter for collection of fluorescence emission of Compound 1. The median fluorescent intensity (MFI) of Compound 1 fluorescence in control cells (FIG. 9, panel A) and the MFI of Compound 1 fluorescence in TBHP-treated cells (FIG. 9, panel B) stained in complete media (FIG. 9, panel A) were increased compared to samples stained in protein-containing buffer (FIG. 9, panel B). As a consequence, the signal to noise ratio (or fold change in TBHP-treated cells as compared to control cells) in the samples stained in complete media (FIG. 9, panel A) is greater (13.6) than the signal to noise ratio in the samples stained in protein-containing buffer (9.6).
# [3] = test system: Jurkat cells (T-cell leukemia, human); assay: Detection of ROS with and without a post-staining wash step, flow cytometry; assay type: cell-based
# Description: Jurkat cells (T-cell leukemia, human) were treated with phosphate buffered saline (control; FIG. 8, panel A) or 200 μM tert-butyl-hydroperoxide (TBHP; FIG. 8, panel B) for one hour at 37° C., 5% CO2 prior to incubation with 500 nM Compound 1. Cell samples were directly analyzed on a Becton Dickinson LSRII flow cytometer equipped with a 488 nm laser line and a 525/50 bandpass filter for collection of fluorescence emission of Compound 1. Histogram overlays show cells analyzed immediately following 30 minutes incubation with Compound 1 (FIG. 8) compared to samples analyzed following three-3 mL wash steps (FIG. 8). […] The signal to noise ratio (or fold change in TBHP-treated cells as compared to control cells) in the no-wash samples was similar to the signal to noise ratio in the samples that were washed three times, 9.1 and 10.4, respectively, for the no-wash and the washed sample.
# Jurkat cells [4] = assay: Detection of TBHP-induced ROS by flow cytometry, with or without NAC; assay type: cell-based, human; settings: 500 nM probe
# Description: Jurkat cells were treated with phosphate buffered saline (FIG. 7, control), 200 μM tert-butyl-hydroperoxide (FIG. 7, TBHP), or 200 μM TBHP and 1 mM N-acetyl-L-cysteine (FIG. 7, TBHP+NAC), for one hour at 37° C., 5% CO2 prior to incubation with 500 nM Compound 1. Cell samples were analyzed using a Becton Dickinson LSRII flow cytometer equipped with a 488 nm laser line and a 525/50 bandpass filter for collection of fluorescence emission of Compound 1. TBHP is a membrane-permeant pro-oxidant used extensively in a model of oxidative stress in different systems. Reduction in the oxidative stress response induced by TBHP has been attributed to the ability of the antioxidant, NAC, to replenish intracellular glutathione levels. This reduces levels of reactive oxygen species.
# [5] = test system: Human osteosarcoma (U2-OS) cells; assay: Resistance to formaldehyde fixation and detergent permeabilization; assay type: cell-based; settings: 100 μM menadione 1 hr, 5 μM probe, 4% formaldehyde, 0.1% Triton X-100
# Description: Human osteosarcoma (U2-OS) cells were plated on a 96-well plate at a density of 7,500 cells/well and incubated overnight at 37° C. The cells were treated with or without 100 μM menadione for 1 hr at 37° C. The cells were then stained with 5 μM Compound 1 and Hoechst 33342 by adding the probes to complete media and incubating at 37° C. for 30 min. The cells were washed with PBS and imaged on a Thermo Fisher Cellomics ArrayScan® VTI, either live or 4% formaldehyde fixed or formaldehyde-fixed and permeabilized with 0.1% Triton X-100.
# [6] = test system: Human aortic smooth muscle (HASM) cells; assay: Detection of angiotensin-II-induced oxidative stress by fluorescence microscopy; assay type: cell-based; settings: 500 ng/ml angiotensin-II 4 hrs, 5 μM probe for last 30 min
# Description: Human aortic smooth muscle (HASM) cells were plated on MatTek 30 mm dishes at a density of 150,000 cells/dish and incubated at 37° C. The cells were then treated with or without 500 ng/ml angiotensin-II for 4 hrs. The cells were stained with 5 μM Compound 1 for last 30 min of the drug incubation. The cells were washed 3× with PBS and imaged on a Zeiss Axiovert inverted microscope using a 40× objective. An increase in the signal of Compound 1 as observed for all compounds tested, indicating an increase in oxidative stress in these cell models (see, FIG. 3).
# [7] = test system: Human osteosarcoma (U2-OS) cells; assay: Detection of TBHP- or menadione-induced ROS by fluorescence microscopy; assay type: cell-based; settings: 200 μM TBHP 2 hrs or 100 μM menadione 1 hr, 5 μM probe for last 30 min, washed 3× PBS
# Description: Human osteosarcoma (U2-OS) cells were plated on MatTek 30 mm dishes at a density of 200,000 cells/dish and incubated at 37° C. The cells were then treated with or without 200 μM tert-butyl hydroperoxide (TBHP, 2 hrs at 37° C.) or 100 μM menadione (1 hr at 37° C.). The cells were stained with 5 μM Compound 1 for the last 30 min of the drug incubation. The cells were washed 3× with phosphate buffered saline (PBS) and imaged on a Zeiss Axiovert inverted microscope using a 40× objective.
smiles,measurement,setting,value
"CCCCC1=C/C(=C/C2Sc3ccccc3N2C)c2ccccc2N1c1ccccc1 (stereo not shown) [Compound 1, (Z)-2-((2-butyl-1-phenylquinolin-4(1H)-ylidene)methyl)-3-methyl-2,3-dihydrobenzo[d]thiazole]",fluorescence intensity in menadione and TBHP-treated cells compared to controls,Jurkat cells [1],increase
same,"signal to noise ratio (fold change in TBHP-treated cells as compared to control cells), protein-containing buffer","[2]; 400 μM TBHP 30 minutes, PBS + 1% BSA",9.6
same,"signal to noise ratio (fold change in TBHP-treated cells as compared to control cells), complete media","[2]; 400 μM TBHP 30 minutes, RPMI 1640 + 10% FBS",13.6
same,median fluorescent intensity (MFI) in complete media compared to protein-containing buffer,[2]; control and 400 μM TBHP-treated cells,increased
same,"median fluorescence intensity (MFI), no-wash cells compared to washed cells","[3]; 500 nM probe 30 minutes, no wash vs three 3 mL wash steps",not significantly different
same,"signal to noise ratio (fold change in TBHP-treated cells as compared to control cells), no-wash sample","[3]; 200 μM TBHP 1 hour, 500 nM probe, no wash",9.1
same,"signal to noise ratio (fold change in TBHP-treated cells as compared to control cells), washed sample","[3]; 200 μM TBHP 1 hour, 500 nM probe, washed three times",10.4
same,"Mean Fluorescence Intensity (MFI), TBHP-treated cells",Jurkat cells [4]; 200 μM TBHP 1 hour,3944
same,"Mean Fluorescence Intensity (MFI), TBHP + NAC treated cells",Jurkat cells [4]; 200 μM TBHP and 1 mM N-acetyl-L-cysteine 1 hour,2768
same,"Mean Fluorescence Intensity (MFI), control cells",Jurkat cells [4]; phosphate buffered saline control,365
same,signal retention after formaldehyde fixation and detergent permeabilization,[5],retained well
same,signal of Compound 1 (fluorescence) in treated vs untreated cells,[6],increase
same,signal of Compound 1 (fluorescence) in treated vs untreated cells,[7],increase
